These results are taken from PMC8578206, “Green Leaf Volatile-Burst in Selaginella moellendorffii” (Frontiers in Plant Science, 2021).

The structures appear in SMILES notation.

The experiment concerns the target T1, SmHPL1b (Selaginella moellendorffii, UniProt D8RF82).
T1 construct: gene CYP74L1; full ORF from genomic DNA in pET100/D-TOPO (tag kept), E. coli BL21 Star (DE3) membrane fraction
Description: decrease in absorbance at […] nm. In kind it is biochemical. The settings on record: E. coli membrane fraction, MES-KOH pH 6.0, 25 °C (methods); optimum pH 5.5.

T1 sequence (D8RF82 entry or part of it): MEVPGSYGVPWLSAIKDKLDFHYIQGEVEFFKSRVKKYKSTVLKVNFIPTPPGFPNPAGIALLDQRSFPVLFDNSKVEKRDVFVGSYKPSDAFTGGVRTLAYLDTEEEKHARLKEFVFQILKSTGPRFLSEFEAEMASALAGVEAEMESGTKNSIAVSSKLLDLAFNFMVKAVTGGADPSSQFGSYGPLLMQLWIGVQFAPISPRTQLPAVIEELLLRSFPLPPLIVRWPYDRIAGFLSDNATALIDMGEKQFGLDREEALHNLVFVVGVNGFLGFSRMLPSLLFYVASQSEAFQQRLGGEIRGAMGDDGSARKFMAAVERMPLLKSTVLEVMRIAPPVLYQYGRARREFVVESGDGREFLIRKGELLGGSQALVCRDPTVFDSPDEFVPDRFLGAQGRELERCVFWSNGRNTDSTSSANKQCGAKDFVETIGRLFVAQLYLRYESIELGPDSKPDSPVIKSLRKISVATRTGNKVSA

What is called Km is the concentration of substrate that gives half-maximal velocity. On to `CC/C=C\C[C@@H](/C=C/C=C\CCCCCCCC(=O)O)OO` [13HPOT, (9Z,11E,15Z)-13-hydroperoxyoctadeca-9,11,15-trienoic acid], for which the Km amounted to 31.4 µM.
